# Assay results from US9193736B2, “PDE 10a inhibitors for the treatment of type II diabetes” (Janssen Pharmaceutica, NV, priority 2013, dated 2015).
# Counter-ions that a name gives are not always drawn.
# Columns and labels:
# [1] = PDE10a perfused brain permeability study: plasma concentrations at 30 and 120 min, brain concentration at 120 min, brain/plasma ratio; details: for concentration at 2 h / Kp at 2 h: male, Sprague-Dawley, rat; for Kp at 2 h: brain/plasma
# Experimental: PDE10a-Brain Permeability Assay
# A. PDE10a-Perfused Brain Permeability Study Protocol
# Drug administration by oral gavage, subcutaneous injection or intravenous was carried out using male Sprague Dawley rats under IACUC protocol (SH-MET3010). Male Sprague Dawley rats (Charles River) ˜300-350 g were maintained on a 4% standard rodent diet (Test Diet 5001). They are allowed ad libitum access to water and food. Room temperature was maintained at 64° F. and humidity at 30-70%.
# Three animals per compound were provided a dose of 2 mg/mL in 20% HpbCD/Tris pH 8 by tail i.v. or 30 mpk p.o. or s.c. in 20% HpbCD/Tris pH 8, with PDE10a antagonists. A first blood sample was collected at 30 min via retro-orbital sinus (anesthetic by 70% CO2/30% O2) into heparinzed plasma separator tubes. The blood was centrifuged and 100 μL plasma was placed into a 96 well plate and saved on dry ice.
# After the 120 min, the final blood sample was collected via retro-orbital sinus under anesthesia by IP 0.5 cc injection of a 4/1 mixture of Ketaset: AnaSed [(prepared 10 mL Ketaset (100 mg/mL Ketamine)+2.5 mL AnaSed (20 mg/mL Xylazine)]. The rats were then perfused with 400 mL heparinized saline (10,000 units/L) through the left ventricle of the heart; the brains were then removed (not including the medulla), weighed and homogenized in PBS (4 mL/g tissue). The samples were stored at −80° C. and submitted for chemical analysis of blood and brain concentrations. Endpoints of sample analysis consists of the plasma concentrations at 30 and 120 min, plus brain concentrations at 120 min.
# [2] = biological target: Rat recombinant PDE10a (rPDE10a) (Rattus norvegicus (Rat), UniProt Q9QYJ6); assay: In vitro assay PDE10a: rat recombinant PDE10a SPA with 3H-cAMP substrate, IC50; type: biochemical; details: 60 nM cAMP, read-out: rPDE10a2 IC50
# In short: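 Enzyme expressed in Sf9 cells via baculovirus and Ni-sepharose purified; reaction with 3H-cAMP ran 60 min at rt, stopped with PDE SPA beads. Compounds diluted in DMSO at 100-fold final concentration; blanks omitted enzyme.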
# [3] = biological target: Human recombinant PDE10A2 (Homo sapiens (Human), UniProt Q9Y233); assay: In vitro hPDE10a: human recombinant PDE10A2 scintillation proximity assay, IC50; type: biochemical; details: human recombinant PDE10A2, SPA, 60 nM cAMP; read-out: hPDE10a2 IC50
# In short: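 Purified recombinant human PDE10A2 (Ni-sepharose) was assayed by SPA, counting [3H]-AMP product captured on yttrium silicate beads added in zinc sulphate stop solution. Inhibition was expressed as % of activity without compound, with a no-enzyme low control. Repeat data points were aggregated.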
# [4] = male Sprague Dawley rats, 2 h, perfused or non-perfused brain
# Sequence of Rat recombinant PDE10a (rPDE10a) (Q9QYJ6 whole entry): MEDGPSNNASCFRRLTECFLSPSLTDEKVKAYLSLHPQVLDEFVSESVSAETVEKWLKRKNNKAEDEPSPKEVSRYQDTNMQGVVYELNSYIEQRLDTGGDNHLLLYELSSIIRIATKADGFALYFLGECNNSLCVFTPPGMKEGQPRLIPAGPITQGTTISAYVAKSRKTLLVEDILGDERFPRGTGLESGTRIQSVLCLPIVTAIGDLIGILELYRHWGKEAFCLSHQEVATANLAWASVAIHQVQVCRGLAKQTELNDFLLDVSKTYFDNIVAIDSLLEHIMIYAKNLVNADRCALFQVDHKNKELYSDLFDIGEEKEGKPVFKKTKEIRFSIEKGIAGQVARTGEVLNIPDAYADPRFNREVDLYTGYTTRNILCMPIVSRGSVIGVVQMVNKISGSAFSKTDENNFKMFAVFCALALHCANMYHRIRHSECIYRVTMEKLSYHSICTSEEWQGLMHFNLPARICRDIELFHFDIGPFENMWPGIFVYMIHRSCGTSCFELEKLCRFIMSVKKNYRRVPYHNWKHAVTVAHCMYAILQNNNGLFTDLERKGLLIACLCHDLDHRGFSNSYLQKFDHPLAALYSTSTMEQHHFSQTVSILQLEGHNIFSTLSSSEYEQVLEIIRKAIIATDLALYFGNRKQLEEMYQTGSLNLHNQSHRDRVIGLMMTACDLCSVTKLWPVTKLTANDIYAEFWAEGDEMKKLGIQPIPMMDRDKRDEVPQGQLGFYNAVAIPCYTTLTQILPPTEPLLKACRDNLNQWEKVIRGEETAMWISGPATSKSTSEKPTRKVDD
# Sequence of Human recombinant PDE10A2 (Q9Y233 267-1055): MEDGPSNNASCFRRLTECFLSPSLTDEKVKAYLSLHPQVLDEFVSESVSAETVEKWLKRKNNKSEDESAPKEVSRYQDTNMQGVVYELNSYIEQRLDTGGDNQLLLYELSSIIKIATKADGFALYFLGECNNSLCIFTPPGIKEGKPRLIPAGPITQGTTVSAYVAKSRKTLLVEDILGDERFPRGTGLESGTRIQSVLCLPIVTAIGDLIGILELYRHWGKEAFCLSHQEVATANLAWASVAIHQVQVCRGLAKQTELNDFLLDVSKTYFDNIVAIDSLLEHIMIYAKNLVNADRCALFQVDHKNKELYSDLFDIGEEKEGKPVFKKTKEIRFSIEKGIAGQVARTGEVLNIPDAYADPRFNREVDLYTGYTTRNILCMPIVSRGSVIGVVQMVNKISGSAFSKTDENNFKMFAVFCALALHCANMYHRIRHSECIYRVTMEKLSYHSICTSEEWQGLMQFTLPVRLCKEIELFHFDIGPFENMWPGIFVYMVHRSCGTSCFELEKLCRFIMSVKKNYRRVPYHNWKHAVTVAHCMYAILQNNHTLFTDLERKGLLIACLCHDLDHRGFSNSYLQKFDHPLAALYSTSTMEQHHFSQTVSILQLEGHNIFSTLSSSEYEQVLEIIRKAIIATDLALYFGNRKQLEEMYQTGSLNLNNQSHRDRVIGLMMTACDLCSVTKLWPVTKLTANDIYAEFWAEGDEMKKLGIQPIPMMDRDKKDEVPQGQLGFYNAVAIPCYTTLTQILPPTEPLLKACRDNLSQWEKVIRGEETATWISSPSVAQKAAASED
SMILES,IC50 [2] [nM],IC50 [3] [nM],also measured
"C(=C\c1nc2c(N3CCOCC3)ccnn2c1-c1ccc(Sc2nnc[nH]2)nc1)/c1ccc2ccccc2n1 [Cpd 22, (E)-2-(2-(3-(6-(4H-1,2,4-Triazol-3-ylthio)pyridin-3-yl)-8-morpholinoimidazo[1,2-b]pyridazin-2-yl)vinyl)quinoline]",–,–,concentration at 2 h ([1]; brain): 117 ng/g; Kp at 2 h [1]: 0.17; concentration at 2 h ([1]; plasma): 788 ng/mL
"O=C(O)C(F)(F)F.O=C(O)CN1CCC(c2c(C#Cc3ccc4ccccc4n3)nc3c(N4CCOCC4)ccnn23)CC1 [Cpd 25, 2-(4-(8-Morpholino-2-(quinolin-2-ylethynyl)imidazo[1,2-b]pyridazin-3-yl)piperidin-1-yl)acetic acid trifluoroacetic acid salt]",–,–,"Brain conc 2 h [1, 4]: 0 ng/g; Ratio Br/Pl Mean 2 h [1, 4]: 0; Plasma conc 2 h ([1]; male Sprague Dawley rats, 2 h, perfused or non-perfused brain study): 5.77 ng/mL"
"Oc1nc(-c2ccc(-c3c(C#Cc4ccc5ccccc5n4)nc4c(N5CCOCC5)ccnn34)cn2)no1 [Cpd 26, 3-(5-(8-Morpholino-2-(quinolin-2-ylethynyl)imidazo[1,2-b]pyridazin-3-yl)pyridin-2-yl)-1,2,4-oxadiazol-5-ol]",–,–,concentration at 2 h ([1]; brain): 37.8 ng/g; Kp at 2 h [1]: 0.26; concentration at 2 h ([1]; plasma): 150 ng/mL
"C(=C\c1nc2c(N3CCOCC3)ccnn2c1N1CCCCC1)/c1ccc2ccccc2n1 [compound 154, (E)-4-(3-(Piperidin-1-yl)-2-(2-(quinolin-2-yl)vinyl)imidazo[1,2-b]pyridazin-8-yl)morpholine]",28,72,–
"O=C(O)c1ccc(-c2c(C#Cc3nc4ccccc4[nH]3)nc3c(N4CCOCC4)ccnn23)cc1 [Cpd 108, 4-(2-((1H-Benzo[d]imidazol-2-yl)ethynyl)-8-morpholinoimidazo[1,2-b]pyridazin-3-yl)benzoic acid]",< 1,< 1,–
"O=C(O)C1CCN(c2c(/C=C/c3ccc4ccccc4n3)nc3c(N4CCOCC4)ccnn23)CC1 [Cpd 131, (E)-1-(8-Morpholino-2-(2-(quinolin-2-yl)vinyl)imidazo[1,2-b]pyridazin-3-yl)piperidine-4-carboxylic acid trifluoroacetic acid salt]",5,7,–
"Clc1cc(N2CCOCC2)c2nc([C@H]3C[C@H](c4ccc5ccccc5n4)C3)cn2n1 [Cpd 130, 2-[trans-3-(6-Chloro-8-morpholin-4-ylimidazo[1,2-b]pyridazin-2-yl)cyclobutyl]quinoline]",30,19,–
"O=C(O)[C@@H]1CCCN1C(=O)c1ccc(-c2c(/C=C/c3ccc4ccccc4n3)nc3c(N4CCOCC4)ccnn23)cc1 [Cpd 71, (S,E)-1-(4-(8-Morpholino-2-(2-(quinolin-2-yl)vinyl)imidazo[1,2-b]pyridazin-3-yl)benzoyl)pyrrolidine-2-carboxylic acid trifluoroacetic acid salt]",8,6,–
"O=C(O)c1ccc(-c2c([C@@H]3C[C@@H]3c3ccc4ccccc4n3)nc3c(N4CCOCC4)cc(Cl)nn23)cc1 [Cpd 147, 4-(6-Chloro-8-morpholino-2-((1R,2S)-2-(quinolin-2-yl)cyclopropyl)imidazo[1,2-b]pyridazin-3-yl)benzoic acid trifluoroacetic acid salt]",4,7,–
"O=C1NC(=O)C(c2ccc(-c3c(CCc4ccc5ccccc5n4)nc4c(N5CCOCC5)ccnn34)cc2)O1 (centres unmarked) [Cpd 70, 5-(4-(8-Morpholino-2-(2-(quinolin-2-yl)ethyl)imidazo[1,2-b]pyridazin-3-yl)phenyl)oxazolidine-2,4-dione]",7,4,–
"C(=C\c1nc2c(N3CCOCC3)ccnn2c1-c1ccc(-c2nnn[nH]2)nc1)/c1ccc2ccccc2n1 [Cpd 19, 2-[(E)-2-{8-Morpholin-4-yl-3-[6-(1H-tetrazol-5-yl)pyridin-3-yl]imidazo[1,2-b]pyridazin-2-yl}ethenyl]quinoline]",3,2,–
"CC(C)[C@H](Nc1ccc(-c2c(/C=C/c3ccc4ccccc4n3)nc3c(N4CCOCC4)ccnn23)cc1)C(=O)O [Cpd 99, (S,E)-3-Methyl-2-(4-(8-morpholino-2-(2-(quinolin-2-yl)vinyl)imidazo[1,2-b]pyridazin-3-yl)phenylamino)butanoic acid trifluoroacetic acid salt]",12,10,–
"c1cncc(-c2c(COc3ccc4ccccc4n3)nc3c(N4CCOCC4)ccnn23)c1 [Cpd 2, 4-(3-(pyridin-3-yl)-2-((quinolin-2-yloxy)methyl)imidazo[1,2-b]pyridazin-8-yl)morpholine]",141,245,–
"O=C(O)c1cccc2nc(/C=C/c3nc4c(N5CCOCC5)ccnn4c3-c3cccnc3)ccc12 [Cpd 137, (E)-2-(2-(8-Morpholino-3-(pyridin-3-yl)imidazo[1,2-b]pyridazin-2-yl)vinyl)quinoline-5-carboxylic acid sodium salt]",1,3,–
"O=C(O)c1ccc(-c2c(/C=C/c3ccc4ccccc4n3)nc3c(N4CCOCC4)ccnn23)s1 [Cpd 57, (E)-5-(8-Morpholino-2-(2-(quinolin-2-yl)vinyl)imidazo[1,2-b]pyridazin-3-yl)thiophene-2-carboxylic acid]",1,1,–
"CS(=O)(=O)NC(=O)CCc1ccc(-c2c(/C=C/c3ccc4ccccc4n3)nc3c(N4CCOCC4)ccnn23)cc1 [Cpd 132, (E)-N-(Methylsulfonyl)-3-(4-(8-morpholino-2-(2-(quinolin-2-yl)vinyl)imidazo[1,2-b]pyridazin-3-yl)phenyl)propanamide trifluoroacetic acid salt]",15,11,–
"O=C(O)CCNC(=O)c1ccc(-c2c(C#Cc3ccc4ccccc4n3)nc3c(N4CCOCC4)ccnn23)cc1 [compound 82, 3-(4-(8-Morpholino-2-(quinolin-2-ylethynyl)imidazo[1,2-b]pyridazin-3-yl)benzamido)propanoic acid]",2,< 1,–
O=C(O)c1ccc(-c2c(/C=C/c3ccc4ccccc4n3)nc3c(N4CCOCC4)ccnn23)o1 [Cpd 58],4,2,–
"O=C(O)c1ccc(-c2c(C#Cc3ccccn3)nc3c(N4CCOCC4)ccnn23)cc1 [Cpd 86, 4-(8-Morpholino-2-(pyridin-2-ylethynyl)imidazo[1,2-b]pyridazin-3-yl)benzoic acid]",2,2,–
"NS(=O)(=O)c1ccc(-c2c(CCc3ccc4ccccc4n3)nc3c(N4CCOCC4)ccnn23)cc1 [compound 38, 4-(8-Morpholino-2-(2-(quinolin-2-yl)ethyl)imidazo[1,2-b]pyridazin-3-yl)benzenesulfonamide]",4,7,–
"O=c1[nH]c(-c2ccc(-c3c(CCc4ccc5ccccc5n4)nc4c(N5CCOCC5)ccnn34)cn2)no1 [Cpd 37, 3-(5-(8-Morpholino-2-(2-(quinolin-2-yl)ethyl)imidazo[1,2-b]pyridazin-3-yl)pyridin-2-yl)-1,2,4-oxadiazol-5(4H)-one]",< 1,1,–
"CS(=O)(=O)NC(=O)c1ccc(-c2c(CSc3ccc4ccccc4n3)nc3c(N4CCOCC4)ccnn23)cc1 [Cpd 120, N-(Methylsulfonyl)-4-(8-morpholino-2-((quinolin-2-ylthio)methyl)imidazo[1,2-b]pyridazin-3-yl)benzamide]",2,3,–
